The source of these data is patent publication US6288122A, “Gardos channel antagonists” (Icagen, Inc., priority 1999, dated 2001).

Data set [1] concerns the target T1, Gardos channel (Homo sapiens, UniProt O15554).
T1 construct: endogenous in cells; host or cells: red blood cells from heparinized whole blood
Nature of the data set: Inhibition of the Gardos channel in red blood cells (86Rb flux). The class given is cell-based. As to conditions: for improvement in potency (Gardos) over non-fluorinated triphenylacetamide 20: vs. compound 20. The text has this:
The activity of the compounds of the invention towards ion channels, such as the Gardos channel can be assayed utilizing methods known in the art. […] Utilizing the methods described in this reference, both the percent inhibition of the Gardos channel and the IC50 of the compounds of the invention can be assayed.
In an exemplary assay, the inhibition by test compounds of an erythrocyte Gardos channel can be assayed using human red blood cells. The degree of inhibition can be measured using a detectable material such as ^86 Rb. In an exemplary assay, utilizing ^86 Rb, Gardos channel inhibition can be assayed by exposing red blood cells to ^86 Rb and a test compound and measuring the amount of ^86 Rb taken up by the cells. Numerous variations on this assay will be apparent to those of skill in the art.
Briefly, erythrocytes are exposed to a test compound and a ^86 Rb-containing medium. The initial rate of ^86 Rb transport can be calculated from a parameter such as the linear least square slope of ^86 Rb uptake by the cell(s). Inhibitory constants can be calculated by standard methods using computer-assisted nonlinear curve fitting.
Heparinized whole blood was washed three times with Modified Flux Buffer (MFB: 140 mM NaCl; 5 mM KCl; 10 mM Tris; 0.1 mM EGTA; pH=7.4). Washed cells were then incubated for 3 hours with ^86 Rb (5 μCi/mL). After this incubation period, the RBCs were washed three times with cold MFB. Washed ^86 Rb loaded RBCs were then incubated with a test compound of the invention for 10 minutes. ^86 Rb flux was then initiated by the addition of 20 μL/mL of a MFB solution containing 10 mM CaCl2 and 100 μM A23187, a calcium ionophore. This yielded a final concentration of 200 μM CaCl2 and 2 μM A23187 n the incubation medium. Cells were incubated for 10 minutes, spun down and the supernatant was removed. Samples were counted in a Wallace Microbeta liquid scintillation counter by Cerenkov emission. Total RBC ^86 Rb content was determined by lysing the RBCs with water and then precipitating protein using a 50:50 mixture of ethanol:chloroform. After a 20 minute microfuge spin, the aqueous and organic layers separated and the aqueous layer was removed and counted. Efflux is expressed as a percentage of the initial cell content of ^86 Rb.

In data set [2] the target is T2, IKs (Cavia porcellus, UniProt O70344).
T2 construct: Recordings of IKs current were made using the whole cell patch clamp methodology on guinea pig myocytes; endogenous in cells; host or cells: guinea pig myocytes (method of Turgeon et al., Circ. Res. 75: 879-86, 1994)
Nature of the data set: Whole cell patch clamp recordings of IKs current in guinea pig myocytes. Format: cell-based. The settings on record: estimated IC50, read-out: Est. IC50 Potency vs. IKs.

A short description of data set [3]: Pharmacokinetic study in the rat (i.v. and p.o.). Format: in vivo, male, Sprague-Dawley rats. On the procedure:
Pharmacokinctic studies were conducted in rats to extend the finding that selected fluoro substitution of the phenyl rings increased metabolic stability in vitro to an in vivo study. […] Blood samples were collected at 9 time points from predosing to 24 hours after dosing p.o. and at 11 time points from pre-dosing to 24 hours after i.v. dosing. Samples were prepared and analyzed for compound plasma concentration using LC-MS/MS.

The nature of the next data set: in vitro. The settings on record: human, microsomes, pH 7.4.
The test system of data set [4] is Gardos channel of normal and sickle erythrocytes. As to conditions: cited from earlier work; for inhibition of Gardos channel / Ca2+-activated K+ flux: in vitro.
For a further data set, the system named is red cell Gardos channel. As to conditions: oral administration; cited from earlier work.
A further data set concerns sickled cells. As to conditions: combined with a compound which stabilizes the oxyconformation of Hb S; cited from earlier work.
The subject of data set [5] is Gardos channel. The settings on record: oral therapy; cited from earlier work.
The subject of data set [6] is IKs. The settings on record: myocytes; cited from earlier work.
A further data set relates to IKs vs. Gardos. Nature of the data set: Selectivity for the Gardos channel relative to IKs (ratio of IC50s).
Where [7] appears, read: erythrocytes, 86Rb, read-out: IC50 Potency vs. Gardos.

Where “and” joins values, the source holds several entries; their conditions need not be identical. Equal values may be shown once. Entries after “also recorded” stand apart in the source; their conditions may differ. Read-outs that look alike come from different tables or passages of the source.

T1 sequence (O15554 whole entry): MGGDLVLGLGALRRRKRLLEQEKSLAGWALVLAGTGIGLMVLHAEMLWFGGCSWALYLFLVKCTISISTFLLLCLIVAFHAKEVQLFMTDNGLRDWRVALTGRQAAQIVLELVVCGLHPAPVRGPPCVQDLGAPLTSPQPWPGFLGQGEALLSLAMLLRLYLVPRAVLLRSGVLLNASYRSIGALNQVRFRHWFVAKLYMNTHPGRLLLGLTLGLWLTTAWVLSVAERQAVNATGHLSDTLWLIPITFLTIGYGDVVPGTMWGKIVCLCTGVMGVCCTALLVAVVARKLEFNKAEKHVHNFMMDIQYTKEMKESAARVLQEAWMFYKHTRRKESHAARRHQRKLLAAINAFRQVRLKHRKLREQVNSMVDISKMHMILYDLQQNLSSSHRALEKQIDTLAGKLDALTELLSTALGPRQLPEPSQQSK
T2 sequence (Q60409 whole entry): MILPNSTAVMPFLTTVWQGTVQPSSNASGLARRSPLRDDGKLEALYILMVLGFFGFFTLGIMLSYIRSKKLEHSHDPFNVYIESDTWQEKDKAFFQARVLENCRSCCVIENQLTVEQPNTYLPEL
T2 sequence (O70344 whole entry): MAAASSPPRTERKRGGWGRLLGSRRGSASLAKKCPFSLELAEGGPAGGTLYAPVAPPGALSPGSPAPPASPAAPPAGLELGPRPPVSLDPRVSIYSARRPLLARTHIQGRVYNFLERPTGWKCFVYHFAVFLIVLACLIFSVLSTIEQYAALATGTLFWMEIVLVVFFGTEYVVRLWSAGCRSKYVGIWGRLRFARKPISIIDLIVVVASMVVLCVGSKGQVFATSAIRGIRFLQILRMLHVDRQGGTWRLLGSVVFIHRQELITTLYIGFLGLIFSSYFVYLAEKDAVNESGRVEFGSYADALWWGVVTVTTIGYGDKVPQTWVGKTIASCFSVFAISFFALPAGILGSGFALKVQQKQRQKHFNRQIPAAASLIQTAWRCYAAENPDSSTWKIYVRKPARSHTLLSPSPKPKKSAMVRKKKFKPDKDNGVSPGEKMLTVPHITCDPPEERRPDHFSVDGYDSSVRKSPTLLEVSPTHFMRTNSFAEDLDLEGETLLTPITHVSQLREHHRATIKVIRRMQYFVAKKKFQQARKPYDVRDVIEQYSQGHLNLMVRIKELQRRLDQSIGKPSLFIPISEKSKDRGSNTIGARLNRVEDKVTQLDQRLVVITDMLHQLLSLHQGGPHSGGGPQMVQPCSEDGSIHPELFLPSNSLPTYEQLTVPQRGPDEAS
Description for IKs vs. Gardos: Recordings of IKs current were made using the whole cell patch clamp methodology on guinea pig myocytes as described in Turgeon et al., Circulation Research 75: 879-86 (1994).
The selectivity of a particular compound for the Gardos channel relative to another potassium ion channel is conveniently determined as a ratio of two compound binding-related quantities (e.g., IC50).
The selectivity of the compounds for the Gardos channel was determined relative to IKs, an exemplary potassium ion channel.
Description for in vitro: The stability of the compounds in various biological milieus can be assayed by methods known in the art. In one embodiment, the stability of the compounds is assayed in an in vitro preparation. In a preferred embodiment, the in vitro preparation is a liver microsome preparation.
The reaction mixture contained 1.0 mg/ml human liver microsomal protein, 100 mM potassium phosphate (pH 7.4), 10 mM MgCl2 and an NADPH-generating system. The compounds were tested at a concentration of 5ΓM at 37° C. and the amount of intact compound remaining in the mixture after two hours calculated in terms of percent of original dose remaining.

What is called IC50 is the midpoint of a concentration-inhibition curve. In the case of `NC(=O)C(c1ccccc1)(c1ccccc1)c1c(F)c(F)c(F)c(F)c1F` [Compound 6], the IC50 on Gardos channel [1] (setting [7]) came out at 0.037 µM.
By bioavailability is commonly meant the share of a dose that reaches the circulation, judged against a reference dose that is usually intravenous. A word on the share remaining: it is the share of the starting amount still present when the sample was taken. A lower share remaining goes with a greater loss. Consider `NC(=O)C(c1ccccc1)(c1ccc(F)cc1)c1ccc(F)cc1` [Compound 3, bis(4-fluorophenyl)phenylacetamide], for which the half-maximal inhibitory concentration (IC50) at IKs [2] is 1.5 µM. Also, the bioavailability in data set [3] (plasma, po, 10 mg/kg p.o., 1 mg/kg i.v., rat) is 100%. For the same compound, in the data set “in vitro”, the metabolised at 2 h, 5 µM is 24% and the share remaining at 2 h, 5 µM was found to be 76%.
As to `NC(=O)C(c1cccc(F)c1)(c1cccc(F)c1)c1cccc(F)c1` [Compound 17], the half-inhibitory concentration (IC50) at IKs [2] was 4 µM. In addition, in the data set “in vitro”, the metabolised at 2 h, 5 µM worked out at 82% and the amount remaining at 2 h, 5 µM came to 18%.
For the compound `Clc1ccc(CCC(Cn2ccnc2)Sc2c(Cl)cccc2Cl)cc1` (stereo not shown) [butoconazole], in data set [4], the “sickle cell dehydration” value is on record as “effective at reducing sickle cell dehydration” and the “inhibition of Gardos channel / Ca2+-activated K+ flux” value is given as “inhibit the Gardos channel in vitro”.
As to `Clc1ccc(COC(Cn2ccnc2)c2ccc(Cl)cc2Cl)cc1` (stereo not shown) [econazole], in data set [4], the “sickle cell dehydration” value is “effective at reducing sickle cell dehydration” and the “inhibition of Gardos channel / Ca2+-activated K+ flux” value is listed as “inhibit the Gardos channel in vitro”.
As for `NC(=O)C(c1ccccc1)(c1cccc(F)c1)c1cccc(F)c1` [Compound 9], on IKs [2], the half-inhibitory concentration (IC50) was 3.2 µM. Moreover, at Gardos channel [1] (setting [7]), the half-maximal inhibitory concentration (IC50) was 0.03 µM. Besides, in “in vitro”, the metabolised at 2 h, 5 µM amounted to 97% and the amount remaining at 2 h, 5 µM worked out at 3%.
For the compound `NC(=O)[C@@](c1ccccc1)(c1ccc(F)cc1)c1ccccc1F` [Compound 11], the IC50 at IKs [2] is 1.3 µM; on Gardos channel [1] (setting [7]), 0.005 µM. In addition, the “increase in potency (Gardos) of 11 over 9” value on Gardos channel [1] turned out to be 600%. In addition, the fraction remaining at 2 h, 5 µM in “in vitro” worked out at 78%.
As for `Clc1ccccc1C(c1ccccc1)(c1ccccc1)n1ccnc1` [Compound 19, clotrimazole], the “effects of oral clotrimazole in SAD-1 mouse” value in the data set with red cell Gardos channel was “inhibition of the red cell Gardos channel, increased red cell K^+ content, a decreased mean corpuscular hemoglobin concentration (MCHC) and decreased cell density”. The “clogging rate of a micropore filter” value in the data set with sickled cells is recorded as “additive reduction in the clogging rate of a micropore filter”. Also, the “effects of oral clotrimazole in patients with sickle cell disease” value in the data set on Gardos channel [5] was “induces inhibition of the Gardos channel and reduces erythrocyte ehydration”. The “interaction with IKs” value in the data set on IKs [6] is “interact with the slow component of the delayed rectifier potassium current in myocytes, IKs”. In the data set “in vitro”, this compound gave a share remaining at 2 h, 5 µM of 4%. For the same compound, the “inhibition of Gardos channel / Ca2+-activated K+ flux” value in [4] is “specific, potent inhibitor of the Gardos channel of normal and sickle erythrocytes; also recorded: blocks Ca^2+ -activated K^+ flux and cell dehydration in sickle erythrocytes”.
Regarding `NC(=O)C(c1ccccc1)(c1ccc(F)cc1)c1ccccc1F` (stereo not shown) [Compound 1, (2-fluorophenyl)-(4-fluorophenyl)phenylacetamide], the IC50 at IKs [2] is 2 µM. In data set [3] (10 mg/kg p.o., 1 mg/kg i.v., rat), the oral bioavailability worked out at 35%. In addition, the fraction remaining at 2 h, 5 µM in “in vitro” is 64%.
On to `NC(=O)C(c1ccc(F)cc1)(c1ccc(F)cc1)c1cccc(F)c1` [Compound 16, bis(4-fluorophenyl)-3-fluorophenylacetamide], for which the IC50 on IKs [2] is 1.9 µM. In “in vitro”, this compound had a fraction remaining at 2 h, 5 µM of 57%.
`CNC(=O)C(c1ccccc1)(c1ccccc1)c1ccccc1` [Compound 22, reference compound]: the half-maximal inhibitory concentration (IC50) on IKs [2] was 2.6 µM; on Gardos channel [1] (setting [7]), 0.1 µM. For the same compound, the fraction remaining at 2 h, 5 µM in “in vitro” is 8%.
As to `NC(=O)C(c1ccccc1)(c1ccccc1)c1ccc(F)c(F)c1` [Compound 7], at IKs [2], the IC50 is 1.2 µM. In “in vitro”, this compound registered a metabolised at 2 h, 5 µM of 85% and a fraction remaining at 2 h, 5 µM of 15%.
`OC(c1ccccc1)(c1ccccc1)c1ccccc1Cl` [Compound 21, reference compound]: the IC50 is 2.6 µM on IKs [2] and 0.5 µM on Gardos channel [1]. In “in vitro”, this compound displayed an amount remaining at 2 h, 5 µM of 35%.
With `NC(=O)C(c1ccc(F)cc1)(c1ccc(F)cc1)c1ccc(F)cc1` [Compound 13], at IKs [2], the half-inhibitory concentration (IC50) is 1.1 µM. The fraction remaining at 2 h, 5 µM in “in vitro” came to 53%.
With `NC(=O)C(c1ccccc1)(c1ccccc1)c1ccccc1Cl` [Compound 18], the IC50 was 7.3 µM on IKs [2] and 0.01 µM at Gardos channel [1]. Also, the “elimination from the bloodstream” value in [3] (1 mg/kg i.v., rat) is “fast”. Besides, the “plasma level after oral dosing” value in data set [3] (10 mg/kg p.o., 2 hour post-dose sample) is “no detectable levels”; in data set [3] (10 mg/kg p.o., between 0.25 and 1 hour after dosing) it was 31 to 65 ng/mL. The “oral bioavailability” value in data set [3] (10 mg/kg p.o., rat) is on record as “very poor oral bioavailability”. In the data set “in vitro”, this compound yielded an amount remaining at 2 h, 5 µM of 6%.
As for `NC(=O)C(c1ccccc1)(c1ccccc1F)c1ccccc1F` [Compound 14], the share remaining at 2 h, 5 µM in “in vitro” was 46%.
In the case of `NC(=O)C(c1ccccc1)(c1ccccc1)c1ccccc1F` [Compound 2], the half-inhibitory concentration (IC50) on Gardos channel [1] (setting [7]) came to 0.015 µM. For the same compound, the “improvement in potency (Gardos) over non-fluorinated triphenylacetamide 20” value on Gardos channel [1] is listed as 330%. Also, the amount remaining at 2 h, 5 µM in “in vitro” amounted to 80%.
In “in vitro”, `NC(=O)C(c1ccc(F)cc1)(c1ccccc1F)c1ccccc1F` [Compound 15] registered a share remaining at 2 h, 5 µM of 53%.
Regarding `NC(=O)[C@](c1ccccc1)(c1ccc(F)cc1)c1ccccc1F` [Compound 12], the concentration for half-maximal inhibition (IC50) on IKs [2] was 1.8 µM. For the same compound, at Gardos channel [1], the “improvement in potency (Gardos) of 12 over 8” value is on record as roughly 700%, the “increase in potency (Gardos) over clotrimazole” value came to 2000% and the “improvement in potency (Gardos) over non-fluorinated triphenylacetamide 20” value stood at 1000%. Moreover, the 50% inhibitory concentration (IC50) at Gardos channel [1] (setting [7]) turned out to be 0.005 µM. Also, the fraction remaining at 2 h, 5 µM in “in vitro” is 44%.
For `NC(=O)C(c1ccccc1)(c1ccccc1)c1ccccc1` [Compound 20, reference compound], the 50% inhibitory concentration (IC50) at IKs [2] is 1.1 µM. For the same compound, the IC50 at Gardos channel [1] (setting [7]) was 0.05 µM. Besides, in “in vitro”, the metabolised at 2 h, 5 µM came out at 87% and the amount remaining at 2 h, 5 µM was found to be 13%.
In the case of `NC(=O)C(c1ccc(F)cc1)(c1ccc(F)cc1)c1ccccc1F` [Compound 5, bis(4-fluorophenyl)-2-fluorophenylacetamide], the IC50 at IKs [2] is 1.4 µM. Besides, the “fold more selective for the Gardos channel versus IKs than clotrimazole” value in the data set with IKs vs. Gardos (vs. clotrimazole) is ~18 fold and ~17 fold. Besides, in the data set on IKs vs. Gardos (vs. compound 20), the “fold more selective for the Gardos channel than the unsubstituted triphenylacetamide parent 20” value is “approximately 6 fold”. Besides, the “fold more potent than clotrimazole towards the Gardos channel” value on Gardos channel [1] is roughly 10 fold. For the same compound, in “in vitro”, the metabolised at 2 h, 5 µM turned out to be 29% and the amount remaining at 2 h, 5 µM is 71%.
`NC(=O)C(c1ccccc1)(c1ccccc1)c1ccc(F)cc1` [Compound 4]: the IC50 at Gardos channel [1] (setting [7]) worked out at 0.013 µM. In the data set “in vitro”, the amount remaining at 2 h, 5 µM was 80%.
For `NC(=O)C(c1ccccc1)(c1ccccc1)c1ccc(F)cc1F` [Compound 8], the IC50 on IKs [2] was 5.7 µM; at Gardos channel [1] (setting [7]), 0.034 µM. The same compound returned a metabolised at 2 h, 5 µM in the data set “in vitro” of 61%. The same compound showed a fraction remaining at 2 h, 5 µM in “in vitro” of 39%.
For the compound `NC(=O)C(c1ccc(F)cc1)(c1cccc(F)c1)c1cccc(F)c1` [Compound 10], the IC50 on IKs [2] is 1.3 µM; at Gardos channel [1] (setting [7]), 0.012 µM. The “Selectivity (IKs vs. Gardos)” value in the data set on IKs vs. Gardos (ratio of IC50 towards IKs vs. IC50 towards the Gardos channel) is 110. Further, the fraction remaining at 2 h, 5 µM in the data set “in vitro” is 59%.
Take `Clc1ccc(COC(Cn2ccnc2)c2ccc(Cl)cc2Cl)c(Cl)c1` (stereo not shown) [miconazole]: in data set [4], the “sickle cell dehydration” value is on record as “effective at reducing sickle cell dehydration” and the “inhibition of Gardos channel / Ca2+-activated K+ flux” value is “inhibit the Gardos channel in vitro”.
